Common to all, as to format: in vivo, mouse
For experiment [1], the system named is meibomian gland basal cells. As to the kind of experiment: Cell proliferation assay through BrdU incorporation staining after eye drop instillation. Particulars: 1.5 year old WT mice, 5% eye drop (5 μL/eye, 6 times/day, only right eye), 2 weeks, vs Vehicle (phosphate buffered saline). The procedure:
[table] BrdU (100 mg/kg body weight, Sigma-Aldrich) was intraperitoneally injected 30 minutes prior to harvesting eyelid tissue from a mouse. An eyelid comprising meibomian glands was immobilized with 4% PFA and embedded in paraffin. Antigens were activated by pressurizing a 5 μm thick segment for 2.5 minutes in 10 mM sodium citrate buffer (pH 6.0). After incubating the segment for 24 hours at 4° C. by using an anti-BrdU antibody (1:1000 dilution; Rockland Inc.), the immune response was made visible with 3,3′-diaminobenzidine (DAB) using secondary antibody Envision+ System—HRP Labelled Polymer Anti-Rabbit (Dako). For each tissue segment, BrdU positive cells in the basal cell layer of a meibomian gland were counted on a digital microscope picture captured at 20× magnification. The length of the outer circumference of a meibomian gland acinus was measured with ImageJ software, and the total BrdU positive cell count was normalized with the length of the outer circumference. The BrdU positive cells were counted by using 16 segments per individual.

Another experiment relates to meibomian gland tissue. Put plainly: Lipid stained tissue observation (meibomian gland volume evaluation), whole mount Herxheimer's staining. The note with it: 1.75 year old WT mice, 5% eye drop (5 μL/eye, 4 times/day, only right eye), 3 months, vs Vehicle (phosphate buffered saline). As for the experimental part:
Meibomian gland tissue in mice was stained in accordance with the following protocol.
As a preparation method of 100 mL of staining solution, a bottle of stock solution prepared by dissolving Sudan IV to saturate in 100% ethanol was left standing in advance, and 70 mL of as much of the supernatant, 20 mL of 10% NaOH, and 10 mL of ultrapure water were mixed, tumbled for 5 minutes, and centrifuged to allow powder to precipitate. The supernatant was filtered with a 0.45 μm filter and used as a staining solution.
The cervical vertebrae of mice was dislocated, and skin of the head including meibomian glands was sampled. The sample was immersed in 4% paraformaldehyde while keeping the sample flat with a drawing pin, and immobilized using a rotator at 4° C. for 24 hours. The periphery of meibomian glands was trimmed. The meibomian glands were immersed in 50% ethanol by using a rotator at room temperature for 10 minutes, then immersed for 20 minutes in 70% ethanol, and immersed in a staining solution using a rotator at room temperature for 24 hours in a falcon tube. The meibomian glands were then immersed for 10 minutes in 70% ethanol, and washing was repeated several times to confirm that the meibomian glands were stained well. The meibomian glands were immersed for 24 hours in amino alcohol in glycerin prepared by mixing 3.75 mL of 80% amino alcohol with 8.25 mL glycerin. […]

Experiment [2] relates to lipid components in meibomian glands. As to the kind of experiment: Lipid analysis of meibomian glands after eye drop instillation (APCI). Particulars: 1.75 year old WT mice, eye drop instillation 3 months as Example 3, compared to Vehicle (phosphate buffered saline). As for the experimental part:
(1) The Eye Drop Instillation Experiment is Performed in the Same Manner as Example 3. Meibomian glands are harvested from an eyelid of a euthanized mouse. Two meibomian glands harvested from one of the eyes of each animal are each placed in a glass vial containing 1 mL of chloroform:methanol=2:1 (v/v) solvent mixture for lipid extraction, and lipids are extracted. The extract is relocated into a new vial. The extract can be stored for several months at −20° C. or lower by evaporating the solution under nitrogen. The extract is then dissolved in a suitable solvent, and lipid composition is analyzed by APCI.

Another experiment concerns Hsd3b6. As to the kind of experiment: Measurement of meibomian gland Hsd3b6 enzymatic activity (steroid synthesis activity) after eye drop instillation. Particulars: 1.5 year old WT mice, 5% eye drop (5 μL/eye, 6 times/day, only right eye), 2 weeks, vs Vehicle (phosphate buffered saline). The procedure: The meibomian gland Hsd3b6 enzymatic activity in mice was measured in accordance with the following protocol.
Hank's balanced salt solution (HBSS) was bubbled with […] for 1 hour or more, and dispensed in 2 mL tubes at 200 μL each. The lid was closed while filled with […]. HBSS was warmed with a 37° C. water bath. A reaction incubator was warmed to 37° C., and a micro tube mixer was installed therein.
The main power of a flow liquid scintillation counter (Perkin Elmer, Radiomatic 625TR) was turned on, and the main power of HPLC (Waters, 2795 Separations Module) was turned on to perform setup. Mobile phase A was replaced with water, and mobile phase B was replaced with acetonitrile. Once a column (Kanto Chemical, LiChroCART 250-4, LiChrosphere 100RP-18, particle size: 5 μm, 4 mm I.D.×250 mm) was installed, 40% acetonitrile (ACN) (A: 60%, B: 40%) was flown at 0.7 mL/min. The column oven temperature at this time was set to 40° C.
^3H-DHEA was added to 1 mL of 40% ACN contained in a 2 mL tube, and the mixture was tapped. A microtube was set on an HPLC holder, and single administration was selected. The peak of contaminant produced after 22 minutes was not collected. […]

Consider two molecules from patent publication US20220370484A1, “NOVEL USE OF NICOTINAMIDE MONONUCLEOTIDE (NMN) AND NICOTINAMIDE RIBOSIDE (NR)” (Senju Pharmaceutical Co., Ltd., priority 2019, published 2022).

For `NC(=O)c1ccc[n+]([C@@H]2O[C@H](CO)[C@@H](O)[C@H]2O)c1` [NR, Nicotinamide riboside], the “BrdU positive cell count in meibomian gland basal cells” value in experiment [1] is reported as “increased significantly”. For the same molecule, the meibomian gland volume entry with meibomian gland tissue is reported as “significant increase”. Moreover, the “Lipid components in a meibomian gland” value in experiment [2] is reported as “normalized”.

For the molecule Nicotinamide mononucleotide [NMN], the “Hsd3b6 enzymatic activity in a meibomian gland” value with Hsd3b6 is on record as “increased significantly”. In addition, in experiment [1], the “BrdU positive cell count in meibomian gland basal cells” value was “increased significantly”. Besides, in the experiment with meibomian gland tissue, the meibomian gland volume result was “significant increase”. The “Lipid components in a meibomian gland” value in experiment [2] is recorded as “normalized”.
